How the values were obtained:
Type in all cases: physicochemical
[1] = Variable temperature XRPD (VT-XRPD); conditions: 25° C. to 245° C., then cooled to 30° C.
Experimental: Samples run under ambient conditions were prepared as flat plate specimens using powder without grinding unless otherwise stated. Approximately 1-2 mg of the sample was lightly pressed on a glass slide to obtain a flat surface. Samples run under non-ambient conditions (VT-XRPD) were mounted on a silicon wafer with heat conducting compound. The sample was then heated to the appropriate temperature at about 20° C./minute and subsequently held isothermally for about 1 minute before data collection was initiated.
Three samples were studied using variable temperature XRPD (VT-XRPD): Form I as received, substantially pure Form I as prepared in Example 3, and substantially pure Form II as prepared in Example 3. VT-XRPD studies were initially carried out on substantially pure Form I as prepared in Example 3 with measurements at 25° C., 50° C., 80° C., 150° C., 220° C., 225° C., 250° C. and cooling to 29° C. Prior to measurement of the last XRPD pattern, the material was crushed due to the growth of large crystals. An overlay of the XRPD patterns can be found in FIG. 4A.
An experiment was also carried out on Form I as received, with measurements at 26° C., 50° C., 150° C., 200° C., 210° C., 220° C., 230° C. and cooling to 27° C. An overlay of the XRPD patterns can be found in FIG. 4B. […] (see peak at ˜14.7 2θ). […]

[2] = 10 week stability study at 40° C./75% RH and 60° C./75% RH, light and dark
Experimental: (§1) Purity analysis was performed on an Agilent HP1100 system equipped with a diode array detector and using Chemstation V9 software. Gradient, Reverse Phase methods (duration approximately 40 minutes) were used in a HPLC1 system. A Thermo-Electron Corporation HyPurity C18 5 um 150×4.6 mm column was used at 25° C. Test samples were made-up of 0.2 mg/ml of the compound in acetonitrile:water (1:1 v/v). 10 μl of sample was injected into the column. The flow rate through the column was 1 ml/min and the detection wavelength, bandwidth was 254,8 nm. Phase A was 0.1% phosphoric acid in water and Phase B was 0.1% phosphoric acid in acetonitrile. The mobile phase timetable is shown below in Table 2.
Samples of Form I and II were tested at 40° C./75% RH and 60° C./75% RH in both light and dark conditions for up to 10 weeks. As the samples were located in temperature/humidity control chambers, the exposure to light was limited to normal laboratory light conditions with artificial light and some winter daylight through the windows.
Approximately 100 mg of each sample was weighed into plastic weighing boats and spread out to form an even thin layer for each of the temperature/humidity/light conditions, as shown in Table 6. The dark samples were protected from exposure to light by wrapping them in aluminum foil. The foil was pierced to allow exposure to humidity.
Time points chosen for HPLC analysis during the stability study were T=0, 1, 2, 5 and 10 weeks. At 10 weeks, the samples were analyzed using XRPD, DSC and polarized light microscopy.

[3] = Aqueous solubility with pH measurement; conditions: water, 25° C., 24 hours; hydrochloride
Experimental: Each sample was suspended in 0.25 ml of solvent (water) in an amount effective to produce a maximum final concentration of greater than or equal to about 10 mg/ml of the parent free form of the compound (i.e., adding excess sample to account for the weight of the salt). […] The filtrate was then diluted down 101 times.

[4] = Gravimetric vapor sorption (GVS)
Experimental: GVS was used to determine the amount of water adsorbed by a sample. Briefly, samples were run on a Hiden IGASorp moisture sorption analyzer running CFRSorp software. Sample sizes were typically 10 mg. A moisture adsorption desorption isotherm was performed as outlined below in Table 3 (2 scans giving 1 complete cycle). Samples were loaded/unloaded at typical room humidity and temperature (40% RH, 25° C.). Samples were then analyzed by XRPD after GVS analysis, e.g., to determine whether any structural changes took place after adsorption of water. The standard isotherm was performed at 25° C. at 10% RH intervals over a 0-90% RH range.

[5] = Storage at 40° C./75% RH under ambient light (XRPD, HPLC purity, colour)
Experimental: as §1
Form I was characterized by pKa, LogP, LogPion and LogD determination and prediction, XRPD before and after storage at 40° C./75% RH for 4 weeks, PLM, DSC and TGA, ^1HNMR, solubility in water with pH measurement, HPLC purity before and after storage at 40° C./75% RH for 4 weeks, water content, GVS with XRPD and purity analysis after measurement, and VT-XRPD.
Form II has been characterized using XRPD before and after storage at 40° C./75% RH for 3 weeks, PLM, DSC and TGA, Solubility in water with pH measurement, HPLC purity, Water content, GVS with XRPD analysis after measurement, and VT-XRPD.

With `Cc1cc2c(-c3ccccc3F)nc(N3CCNCC3)nc2s1.Cl` [Form II, 4-(2-fluorophenyl)-6-methyl-2-(piperazin-1-yl)thieno[2,3-d]pyrimidine hydrochloride] as the compound, how does the “Form on heating (VT-XRPD)” value [1] read?
The value was “remained as Form II throughout the experiment”.

And the Purity % ([2]; 40° C./75% RH, Dark, 1 week)?
The Purity % was 99.9%.

What about the Purity % ([2]; 40° C./75% RH, Dark, 2 weeks) of the same compound?
Its Purity % is 100%.

And the Purity % ([2]; 40° C./75% RH, Dark, 5 weeks)?
Its Purity % is 100%.

What about the Purity % ([2]; 40° C./75% RH, Dark, 10 weeks, hydrochloride) of the same compound?
Its Purity % is 100%.

And the Purity % ([2]; 40° C./75% RH, Light, 1 week)?
Its Purity % is 99.9%.

And the Purity % ([2]; 40° C./75% RH, Light, 2 weeks)?
The Purity % was 100%.

What about the Purity % ([2]; 40° C./75% RH, Light, 5 weeks, hydrochloride) of the same compound?
The Purity % was 99.9%.

And the Purity % ([2]; 40° C./75% RH, Light, 10 weeks, hydrochloride)?
Its Purity % is 99.9%.

And the Purity % ([2]; 60° C./75% RH, Dark, 1 week)?
The Purity % was 99.9%.

What about the Purity % ([2]; 60° C./75% RH, Dark, 2 weeks, hydrochloride) of the same compound?
The Purity % was 100%.

What about the Purity % ([2]; 60° C./75% RH, Dark, 5 weeks) of the same compound?
Its Purity % is 100%.

What about the Purity % ([2]; 60° C./75% RH, Dark, 10 weeks, hydrochloride) of the same compound?
Its Purity % is 99.9%.

What about the Purity % ([2]; 60° C./75% RH, Light, 1 week) of the same compound?
Its Purity % is 99.8%.

What about the Purity % ([2]; 60° C./75% RH, Light, 2 weeks, hydrochloride) of the same compound?
The Purity % was 99.9%.

What about the Purity % ([2]; 60° C./75% RH, Light, 5 weeks, hydrochloride) of the same compound?
The Purity % was 99.8%.

And the Purity % ([2]; 60° C./75% RH, Light, 10 weeks, hydrochloride)?
The Purity % was 99.7%.

What about the Purity % ([2]; time point 0 weeks, hydrochloride) of the same compound?
Its Purity % is 99.9%.

What about the “Stability as indicated by the HPLC data” value ([2]; up to 10 weeks, 40° C./75% RH and 60° C./75% RH) of the same compound?
Its value is “stable to ambient light levels as well as elevated temperature and humidity”.

And the “Aqueous solubility (free base equivalent)” value [3]?
Its value is 1600 µg/mL.

What about the “pH of the solubility sample” value [3] of the same compound?
The value was 6.39.

And the “XRPD reanalysis after GVS” value ([4]; after one adsorption/desorption cycle)?
Its value is “did not show any change”.

And the GVS weight increase ([4]; between 0 and 40% RH)?
The GVS weight increase was 1.4%.

What about the “GVS weight increase, equivalent water” value ([4]; between 0 and 40% RH) of the same compound?
Its value is 0.29 moles of water.

And the “GVS weight increase, equivalent water” value ([4]; between 0 and 90% RH)?
The value was 0.39 moles of water.

What about the “GVS total weight increase” value ([4]; between 0 and 90% RH, single cycle, 25° C., hydrochloride) of the same compound?
Its value is 1.9%.

And the “Colour of material surface after storage” value ([5]; 3 weeks at 40° C./75% RH, ambient light)?
Its value is “had not changed color”.

And the XRPD after storage ([5]; 40° C./75% RH for 4 days, samples from acetone and acetonitrile)?
Its XRPD after storage is “remained unchanged”.

What about the “XRPD pattern after storage” value ([5]; 40° C./75% RH for three weeks) of the same compound?
The value was “unchanged”.

What about the “HPLC purity after storage” value ([5]; three weeks at 40° C./75% RH) of the same compound?
The value was 100%.

— US20070254891A1, “Crystalline forms of 4-(2-fluorophenyl)-6-methyl-2-(piperazin-1-yl)thieno[2,3-d]pyrimidine” (Dynogen Pharmaceuticals, Inc., priority 2006, published 2007)
